“Also recorded” adds a separate entry of the source. Like-named read-outs stand apart in the source and are kept apart here. Each block holds one compound with its values, some of them ahead of it.
Experiments:
[1] = target: T1, FLJ38897-derived protein (Homo sapiens, UniProt P57764); test: SEC/MS interaction analysis, FLJ38897-derived protein (GSDMDC1); format: binding; settings: spin column method; mixture with protein vs buffer solution alone; data not shown
T1 construct: His-tag (N); made in house; host or cells: Escherichia coli BL21star(DE3)pLysS
T1 sequence (P57764 265-484): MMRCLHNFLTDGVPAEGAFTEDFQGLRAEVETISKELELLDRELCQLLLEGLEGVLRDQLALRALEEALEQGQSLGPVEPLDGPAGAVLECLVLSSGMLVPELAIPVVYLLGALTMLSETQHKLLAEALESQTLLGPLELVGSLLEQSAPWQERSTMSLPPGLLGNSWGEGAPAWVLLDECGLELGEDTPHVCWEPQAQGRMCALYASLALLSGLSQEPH
From the text: (§1) To analyze the interactions between commonly used drugs and proteins expressed from human full-length cDNA clones while keeping both the proteins and the compounds in non-modified, non-immobilized state, size exclusion chromatography (SEC) and mass analysis were used in combination. The specific procedures are shown below.
(§2) The compound-protein mixture prepared in step 1 was subjected to chromatography using an SEC column, the compound and the protein were separated by SEC, and the compound that interacted with the bound compound or protein contained in the protein fraction was analyzed using a mass analyzer.
(§3) Protein concentrations were measured using BCA Protein Assay (PIERCE), in consideration of the purity calculated by SDS-PAGE.
(§4) Mass analysis was performed using LCQ DECA XP (Thermoelectron) or Q-TOF micro (Micromass), equipped with an ESI probe. The LC pump used was Agilent 1100 (Yokogawa Analytical Systems), and the autosampler used was HTC-PAL (CTC Analytics) equipped with a cooling stacker. The SEC column used was a micro-LC column or a 384-well spin column. […]
(§5) In the 384-well spin column method, Unifilter 100 (Whatman), packed with 10 μL (dry volume) of Bio-Gel P6 (BIO-RAD) and swollen with milliQ water, was used as the SEC column. […] The SEC spin column was mounted on an acetonitrile-aliquoted 384-well U-bottom plate and centrifuged; the SEC spin column filtrate, which is a protein fraction, was recovered in 50% acetonitrile. The protein precipitate produced by the acetonitrile was removed via centrifugation and filtration for deproteinization; the resulting filtrate was concentrated by centrifugal concentration and re-dissolved in 10 μL of 50% methanol to obtain a mass analysis sample. The mobile phase supplied to the mass analyzer was 0.1% formic acid/50% methanol solution in the positive ion mode, and 0.1% ammonia/50% methanol solution in the negative ion mode; these mobile phases were used at a flow rate of 40 μL/min. 2-μL of mass analysis samples were injected using an autosampler at 2-minute intervals; the mass spectral intensity of the compound was measured to retrieve the spectral intensity of the pharmaceutical compound contained in the SEC spin column filtrate (protein fraction eluted from SEC).

[2] = test system: FLJXXXXX-derived proteins; test: SEC/MS spin column interaction analysis of FLJXXXXX-derived proteins and various compounds (Tables 30-1 to 30-4); format: binding, human; settings: SEC spin column filtrate, spectral intensity increased with doses of compound and protein
[3] = test system: FLJ20972-derived protein
From the text: as §1, §2, §3
Mass analysis was performed using LCQ DECA XP (Thermoelectron) or Q-TOF micro (Micromass), equipped with an ESI probe. The LC pump used was Agilent 1100 (Yokogawa Analytical Systems), and the autosampler used was HTC-PAL (CTC Analytics) equipped with a cooling stacker. The SEC column used was a micro-LC column or a 384-well spin column.
The SEC column used for the micro-LC method was a TSKgel super SW2000 (TOSOH) cartridge column (1.0 mm ID×10 mm) or a TSKgel super SW2000 (TOSOH) column (1.0 mm ID×30 mm), with 10 mM ammonium acetate aqueous solution serving as the mobile phase. A conditioning solvent (0.5% formic acid/methanol solution in the positive ion mode, 0.5% ammonia/methanol solution in the negative ion mode) was mixed downstream of the SEC column via a Tee connector; the column was connected to the ESI of the mass analyzer. The flow rate was set at 40 μL/min for the SEC column side, and 10 μL/min for the conditioning solvent side.
Specifically, if the protein and the compound interact with each other, the acceleration of the elution of the compound molecules that are bound to the protein when the protein is overtaking the compound in the SEC column occurs, resulting in a change in the mass chromatogram of the compound depending on the presence or absence of the protein.
as §5

[4] = test system: FLJ41550-derived protein; test: SEC/MS interaction analysis, FLJ41550-derived protein (SAMHD1); format: binding, human
From the text: as §1, §2, §3, §4, §5

[5] = compound 12.5 μM, protein 10 μM
[6] = compound 12.5 μM, protein 25 μM
[7] = compound 62.5 μM, protein 10 μM
[8] = compound 62.5 μM, protein 25 μM
[9] = spin column method, doses of both compound and protein varied

interaction judged from mass spectrum peak intensity of the compound in the spin column filtrate [1]: there was an interaction
SMILES: C1CCC(C(CC2CCCCN2)C2CCCCC2)CC1 (stereo not shown) [perhexyline]
FLJ No of the derived protein with which the compound was judged to exhibit a concentration-dependent interaction ([2]; listed as perhexiline): FLJ37909; also recorded: FLJ38897

SMILES: CNCCCC1c2ccccc2C=Cc2ccccc21 [protriptyline]
spectrum intensity of the compound in the SEC spin column filtrate ([3]; compound 12.5 μM, protein 0 μM): 39179
spectrum intensity of the compound in the SEC spin column filtrate ([3]; compound 12.5 μM, protein 5 μM): 27260
spectrum intensity of the compound in the SEC spin column filtrate [3, 5]: 39545
spectrum intensity of the compound in the SEC spin column filtrate [3, 6]: 44522
spectrum intensity of the compound in the SEC spin column filtrate ([3]; compound 25 μM, protein 0 μM): 53214
spectrum intensity of the compound in the SEC spin column filtrate ([3]; compound 25 μM, protein 5 μM): 76771
spectrum intensity of the compound in the SEC spin column filtrate ([3]; compound 25 μM, protein 10 μM): 105694
spectrum intensity of the compound in the SEC spin column filtrate ([3]; compound 25 μM, protein 25 μM): 132099
spectrum intensity of the compound in the SEC spin column filtrate ([3]; compound 62.5 μM, protein 0 μM): 239324
spectrum intensity of the compound in the SEC spin column filtrate [3, 7]: 390017
spectrum intensity of the compound in the SEC spin column filtrate [3, 8]: 754873
interaction judged from spectrum intensity of the compound in the SEC spin column filtrate (protein fraction eluted from SEC) [3, 9]: concentration-dependent interaction

SMILES: CN1CCN(CCCN2c3ccccc3Sc3ccc(S(=O)(=O)N(C)C)cc32)CC1 [thioproperasine, thioproperazine]
spectrum intensity of the compound in the SEC spin column filtrate ([4]; compound 12.5 μM, protein 0 μM): 252410
spectrum intensity of the compound in the SEC spin column filtrate ([4]; compound 12.5 μM, protein 5 μM): 377673
spectrum intensity of the compound in the SEC spin column filtrate [4, 5]: 478699
spectrum intensity of the compound in the SEC spin column filtrate [4, 6]: 941513
spectrum intensity of the compound in the SEC spin column filtrate ([4]; compound 25 μM, protein 0 μM): 262646
spectrum intensity of the compound in the SEC spin column filtrate ([4]; compound 25 μM, protein 5 μM): 778927
spectrum intensity of the compound in the SEC spin column filtrate ([4]; compound 25 μM, protein 10 μM): 1198533
spectrum intensity of the compound in the SEC spin column filtrate ([4]; compound 25 μM, protein 25 μM): 983016
spectrum intensity of the compound in the SEC spin column filtrate ([4]; compound 62.5 μM, protein 0 μM): 1132948
spectrum intensity of the compound in the SEC spin column filtrate ([4]; compound 62.5 μM, protein 5 μM): 1457362
spectrum intensity of the compound in the SEC spin column filtrate [4, 7]: 2445959
spectrum intensity of the compound in the SEC spin column filtrate [4, 8]: 2997892
interaction judged from spectrum intensity of the compound in the SEC spin column filtrate (protein fraction eluted from SEC) [4, 9]: concentration-dependent interaction
FLJ No of the derived protein with which the compound was judged to exhibit a concentration-dependent interaction [2]: FLJ37909; also recorded: FLJ41550

From US20090143285A1, “TARGET PROTEIN AND TARGET GENE FOR DRUG DISCOVERY AND SCREENING METHOD” (REVERSE PROTEOMICS RESEARCH INSTITUTE CO., LTD., priority 2005, published 2009)
